Test results from patent US6525001B1, “Substituted pyrimidine and pyridine herbicides” (Mid-American Commercialization Corporation, priority 1997, dated 2003).

How the values were obtained:
Format in all cases: in vivo
Design in all cases: key: 0 is no effect; 10 is complete control
[1] = test system: bedstraw (Galium aparine); assay: Test B pre-/postemergence; conditions: for Bedstraw plant response rating: Preemergence
Summary of the method: (§1)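 Scored visually 0 (none) to 10 (complete control) against untreated plants after twelve to sixteen greenhouse days. Test chemicals, formulated in surfactant-containing non-phytotoxic solvent, applied to soil after planting and, separately, onto 1- to 4-leaf (2–18 cm) plants.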

[2] = test system: blackgrass (Alopecurus myosuroides); assay: Test B pre-/postemergence; conditions: for Blackgrass plant response rating: Preemergence
Summary of the method: as §1

[3] = test system: broadleaf signalgrass (Brachiaria decumbens); assay: Test B pre-/postemergence; conditions: for B. signalgrass plant response rating: Preemergence
Summary of the method: as §1

[4] = test system: cocklebur (Xanthium strumarium); assay: Test B pre-/postemergence; conditions: for Cocklebur plant response rating: Preemergence
Summary of the method: as §1

corn (Zea mays) = assay: Test B pre-/postemergence; conditions: for Corn plant response rating: Preemergence
Summary of the method: as §1

[5] = test system: crabgrass (Digitaria sanguinalis); assay: Test B pre-/postemergence; conditions: for Crabgrass plant response rating: Preemergence
Summary of the method: as §1

[6] = test system: giant foxtail (Setaria faberii); assay: Test B pre-/postemergence
Summary of the method: as §1

[7] = test system: momingglory (Ipomoea hederacea); assay: Test B pre-/postemergence
Summary of the method: as §1

[8] = test system: pigweed (Amaranthus retroflexus); assay: Test B pre-/postemergence
Summary of the method: as §1

[9] = test system: purple nutsedge (Cyperus rotundus); assay: Test B pre-/postemergence
Summary of the method: as §1

rape (Brassica napus) = assay: Test B pre-/postemergence
Summary of the method: as §1

soybean (Glycine max) = assay: Test B pre-/postemergence
Summary of the method: as §1

[10] = test system: sugar beet (Beta vulgaris); assay: Test B pre-/postemergence
Summary of the method: as §1

[11] = test system: velvetleaf (Abutilon theophrasti); assay: Test B pre-/postemergence
Summary of the method: as §1

[12] = test system: wheat (Triticum aestivum); assay: Test B pre-/postemergence
Summary of the method: as §1

wild oat (Avena fatua) = assay: Test B pre-/postemergence
Summary of the method: as §1

[13] = test system: bamyardgrass (Echinochloa crus-galli); assay: Test B flood test
Summary of the method: (§2)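 Flood test on plants grown to the 2-leaf stage; treated plants kept in greenhouse twelve to sixteen days, then visually rated against controls on a 0 (no effect) to 10 (complete control) scale.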

[14] = test system: duck salad (Heteranthera limosa); assay: Test B flood test
Summary of the method: as §2

rice (Oryza sativa) = assay: Test B flood test
Summary of the method: as §2

[15] = test system: smallflower flatsedge (Cyperus difformis); assay: Test B flood test
Summary of the method: as §2

[16] = Rate 250 g/ha, Postemergence (so in the source)
[17] = Rate 62 g/ha, Postemergence (flood test)
[18] = Rate 125 g/ha, Postemergence, flood test
[19] = Rate 250 g/ha, Postemergence (flood test species)
[20] = Rate 125 g/ha, Postemergence section (flood test species)

In the case of `Cc1cnc(-c2ccc(Cl)cc2)nc1Cc1cccc(C#N)c1` [Compound 33], the “Plant response rating, Bedstraw” value ([1]; Rate 62 g/ha, Postemergence) is reported as 9, the “Bedstraw plant response rating” value ([1]; Rate 62 g/ha) is reported as 0 and the “Plant response rating, Bedstraw” value ([1]; Rate 125 g/ha, Postemergence) is reported as 9. For the same compound, the “Bedstraw plant response rating” value ([1]; Rate 125 g/ha) was 1, the “Plant response rating, Bedstraw” value ([1]; Rate 250 g/ha, Postemergence) was 9 and the “Plant response rating, Bedstraw” value [1, 16] was 2. For the same compound, the “Plant response rating, Blackgrass” value ([2]; Rate 62 g/ha, Postemergence) was 0, the “Blackgrass plant response rating” value ([2]; Rate 62 g/ha) was 0 and the “Plant response rating, Blackgrass” value ([2]; Rate 125 g/ha, Postemergence) was 1. For the same compound, the “Blackgrass plant response rating” value ([2]; Rate 125 g/ha) was 0, the “Plant response rating, Blackgrass” value ([2]; Rate 250 g/ha, Postemergence) was 2 and the “Plant response rating, Blackgrass” value [2, 16] was 0. For the same compound, the “Plant response rating, B. signalgrass” value ([3]; Rate 62 g/ha, Postemergence) was 1, the “B. signalgrass plant response rating” value ([3]; Rate 62 g/ha) was 0 and the “Plant response rating, B. signalgrass” value ([3]; Rate 125 g/ha, Postemergence) was 1. The “B. signalgrass plant response rating” value ([3]; Rate 125 g/ha) was 1, the “Plant response rating, B. signalgrass” value ([3]; Rate 250 g/ha, Postemergence) was 2 and the “Plant response rating, B. signalgrass” value ([3]; Rate 250 g/ha, Postemergence as printed in head r139 (second section for compounds 26-50)) was 1. For the same compound, the “Plant response rating, Cocklebur” value ([4]; Rate 62 g/ha, Postemergence) was 3, the “Cocklebur plant response rating” value ([4]; Rate 62 g/ha) was 0 and the “Plant response rating, Cocklebur” value ([4]; Rate 125 g/ha, Postemergence) was 6. The “Cocklebur plant response rating” value ([4]; Rate 125 g/ha) was 0, the “Plant response rating, Cocklebur” value ([4]; Rate 250 g/ha, Postemergence) was 6 and the “Plant response rating, Cocklebur” value [4, 16] was 0. For the same compound, the “Plant response rating, Corn” value (corn (Zea mays); Rate 62 g/ha, Postemergence) was 1, the “Corn plant response rating” value (corn (Zea mays); Rate 62 g/ha) was 0 and the “Plant response rating, Corn” value (corn (Zea mays); Rate 125 g/ha, Postemergence) was 1. The “Corn plant response rating” value (corn (Zea mays); Rate 125 g/ha) was 0, the “Plant response rating, Corn” value (corn (Zea mays); Rate 250 g/ha, Postemergence) was 1 and the “Plant response rating, Corn” value (corn (Zea mays); [16]) was 0. The “Plant response rating, Crabgrass” value ([5]; Rate 62 g/ha, Postemergence) was 0, the “Crabgrass plant response rating” value ([5]; Rate 62 g/ha) was 0 and the “Plant response rating, Crabgrass” value ([5]; Rate 125 g/ha, Postemergence) was 0. For the same compound, the “Crabgrass plant response rating” value ([5]; Rate 125 g/ha) was 0, the “Plant response rating, Crabgrass” value ([5]; Rate 250 g/ha, Postemergence) was 1 and the “Plant response rating, Crabgrass” value [5, 16] was 0. For the same compound, the “Plant response rating, Giant foxtail” value ([6]; Rate 62 g/ha, Postemergence) was 0, the “Giant foxtail plant response rating” value ([6]; Rate 62 g/ha, Preemergence) was 0 and the “Giant foxtail plant response rating” value ([6]; Rate 125 g/ha, Postemergence) was 0. The “Giant foxtail plant response rating” value ([6]; Rate 125 g/ha, Preemergence) was 1, the “Plant response rating, Giant foxtail” value ([6]; Rate 250 g/ha, Postemergence) was 1 and the “Plant response rating, Giant foxtail” value [6, 16] was 1. The “Plant response rating, Morningglory” value ([7]; Rate 62 g/ha, Postemergence) was 2, the “Morningglory plant response rating” value ([7]; Rate 62 g/ha, Preemergence) was 0 and the “Morningglory plant response rating” value ([7]; Rate 125 g/ha, Postemergence) was 5. For the same compound, the “Morningglory plant response rating” value ([7]; Rate 125 g/ha, Preemergence) was 0, the “Plant response rating, Morningglory” value ([7]; Rate 250 g/ha, Postemergence) was 5 and the “Plant response rating, Morningglory” value [7, 16] was 0. For the same compound, the “Plant response rating, Redroot pigweed” value ([8]; Rate 62 g/ha, Postemergence) was 1, the “Redroot pigweed plant response rating” value ([8]; Rate 62 g/ha, Preemergence) was 0 and the “Redroot pigweed plant response rating” value ([8]; Rate 125 g/ha, Postemergence) was 2. The “Redroot pigweed plant response rating” value ([8]; Rate 125 g/ha, Preemergence) was 0, the “Plant response rating, Redroot pigweed” value ([8]; Rate 250 g/ha, Postemergence) was 7 and the “Plant response rating, Redroot pigweed” value [8, 16] was 2. For the same compound, the “Plant response rating, Nutsedge” value ([9]; Rate 62 g/ha, Postemergence) was 0, the “Nutsedge plant response rating” value ([9]; Rate 62 g/ha, Preemergence) was 0 and the “Nutsedge plant response rating” value ([9]; Rate 125 g/ha, Postemergence) was 0. The “Nutsedge plant response rating” value ([9]; Rate 125 g/ha, Preemergence) was 0, the “Plant response rating, Nutsedge” value ([9]; Rate 250 g/ha, Postemergence) was 0 and the “Plant response rating, Rape” value (rape (Brassica napus); Rate 62 g/ha, Postemergence) was 6. For the same compound, the “Rape plant response rating” value (rape (Brassica napus); Rate 62 g/ha, Preemergence) was 0, the “Rape plant response rating” value (rape (Brassica napus); Rate 125 g/ha, Postemergence) was 7 and the “Rape plant response rating” value (rape (Brassica napus); Rate 125 g/ha, Preemergence) was 0. For the same compound, the “Plant response rating, Rape” value (rape (Brassica napus); Rate 250 g/ha, Postemergence) was 7, the “Plant response rating, Rape” value (rape (Brassica napus); [16]) was 2 and the “Plant response rating, Soybean” value (soybean (Glycine max); Rate 62 g/ha, Postemergence) was 1. For the same compound, the “Soybean plant response rating” value (soybean (Glycine max); Rate 62 g/ha, Preemergence) was 0, the “Soybean plant response rating” value (soybean (Glycine max); Rate 125 g/ha, Postemergence) was 2 and the “Plant response rating, Soybean” value (soybean (Glycine max); Rate 125 g/ha, Preemergence) was 0. For the same compound, the “Plant response rating, Soybean” value (soybean (Glycine max); Rate 250 g/ha, Postemergence) was 4, the “Plant response rating, Soybean” value (soybean (Glycine max); [16]) was 0 and the “Plant response rating, Sugarbeets” value ([10]; Rate 62 g/ha, Postemergence) was 10. The “Sugarbeets plant response rating” value ([10]; Rate 62 g/ha, Preemergence) was 0, the “Sugarbeets plant response rating” value ([10]; Rate 125 g/ha, Postemergence) was 10 and the “Plant response rating, Sugarbeets” value ([10]; Rate 125 g/ha, Preemergence) was 1. For the same compound, the “Plant response rating, Sugarbeets” value ([10]; Rate 250 g/ha, Postemergence) was 10, the “Plant response rating, Sugarbeets” value [10, 16] was 4 and the “Plant response rating, Velvetleaf” value ([11]; Rate 62 g/ha, Postemergence) was 1. The “Velvetleaf plant response rating” value ([11]; Rate 62 g/ha, Preemergence) was 0, the “Velvetleaf plant response rating” value ([11]; Rate 125 g/ha, Postemergence) was 4 and the “Plant response rating, Velvetleaf” value ([11]; Rate 125 g/ha, Preemergence) was 0. The “Plant response rating, Velvetleaf” value ([11]; Rate 250 g/ha, Postemergence) was 6, the “Plant response rating, Velvetleaf” value [11, 16] was 1 and the “Wheat plant response rating” value ([12]; Rate 62 g/ha, Postemergence) was 0. For the same compound, the “Wheat plant response rating” value ([12]; Rate 62 g/ha, Preemergence) was 0, the “Wheat plant response rating” value ([12]; Rate 125 g/ha, Postemergence) was 1 and the “Plant response rating, Wheat” value ([12]; Rate 125 g/ha, Preemergence) was 0. For the same compound, the “Plant response rating, Wheat” value ([12]; Rate 250 g/ha, Postemergence) was 1, the “Plant response rating, Wheat” value [12, 16] was 1 and the “Wild oats plant response rating” value (wild oat (Avena fatua); Rate 62 g/ha, Postemergence) was 1. The “Wild oats plant response rating” value (wild oat (Avena fatua); Rate 62 g/ha, Preemergence) was 0, the “Wild oats plant response rating” value (wild oat (Avena fatua); Rate 125 g/ha, Postemergence) was 2 and the “Plant response rating, Wild oats” value (wild oat (Avena fatua); Rate 125 g/ha, Preemergence) was 0. For the same compound, the “Plant response rating, Wild oats” value (wild oat (Avena fatua); Rate 250 g/ha, Postemergence) was 3, the “Plant response rating, Wild oats” value (wild oat (Avena fatua); [16]) was 1 and the “Plant response rating, Barnyardgrass” value [13, 17] was 1. The “Plant response rating, Barnyardgrass” value [13, 18] was 2, the “Plant response rating, Barnyardgrass” value [13, 19] was 3 and the “Plant response rating, Ducksalad” value [14, 17] was 0. The “Plant response rating, Ducksalad” value [14, 18] was 1, the “Plant response rating, Ducksalad” value [14, 19] was 2 and the “Plant response rating, Rice” value (rice (Oryza sativa); [17]) was 1. The “Rice plant response rating” value (rice (Oryza sativa); [20]) was 1, the “Plant response rating, Rice” value (rice (Oryza sativa); [19]) was 3 and the “Plant response rating, S. Flatsedge” value [15, 17] was 3. For the same compound, the “S. Flatsedge plant response rating” value [15, 20] was 7 and the “Plant response rating, S. Flatsedge” value [15, 19] was 8.
